Reference: PubChem BioAssay AID1996
In brackets after ≈: the same amount, converted by molar mass.

Settings: buffer; pH 7.4; 200.0 µM
For `CCCC1C(=O)N(Cc2ccccc2)C(=O)CC1C` (centres undefined), the solubility kinetic was 31.1 µg/mL (≈ 120 µM). With `Cl.O=C(NCc1ccccc1)N1CCNCC1` the solubility kinetic was > 38.4 µg/mL. With `CC(CCc1ccccc1)NC(=O)CCNC(=O)c1ccccc1Cl` (centres undefined) the solubility kinetic was 12.3 µg/mL (≈ 34.3 µM). For `Cc1ccccc1-n1c(C)nc2ccsc2c1=O.Cl`, the solubility kinetic was > 43.9 µg/mL. Work on `CCc1noc(C)c1C(=O)Nc1nc2c(C)cccc2s1` yielded a solubility kinetic of 8.6 µg/mL (≈ 28.5 µM). With `O=C(Cc1ccc(-c2ccccc2)cc1)Nc1ccccn1` the solubility kinetic was 12 µg/mL (≈ 41.6 µM). `Cl.O=C(CNCc1cccs1)NC12CC3CC(CC(C3)C1)C2` gave a solubility kinetic of 48.1 µg/mL. With `Cc1cc(Nc2ccc(Br)cc2)nc(-c2ccccc2O)n1` the solubility kinetic was < 0.3 µg/mL. `CCCCn1c(O)c(C(CC)=NCCCn2ccnc2)c(=O)[nH]c1=O` gave a solubility kinetic of 48.2 µg/mL (≈ 139 µM). With `CC(C)(C)c1nnc(NS(=O)(=O)c2ccc([N+](=O)[O-])cc2)s1` the solubility kinetic was > 51.4 µg/mL. In the case of `O=C(c1ccc2ccccc2n1)N(CCO)Cc1ccccc1`, the solubility kinetic is reported as 41.4 µg/mL (≈ 135 µM). For `Nc1ccc(Oc2ccc3c(c2)C(=O)NC3=O)cc1`, the solubility kinetic was 35.5 µg/mL (≈ 140 µM). In the case of `O=[N+]([O-])c1ccc(Cl)c2cccnc12`, the solubility kinetic is reported as 24.6 µg/mL (≈ 118 µM). In the case of `O=S(=O)(c1ccc2[nH]ccc2c1)N1CCCCCC1`, the solubility kinetic is reported as > 41.8 µg/mL. With `Cc1cc(C)cc(NS(=O)(=O)c2csc(C(N)=O)c2)c1` the solubility kinetic was > 46.6 µg/mL. In the case of `Cc1ccc(C(=O)O)cc1N1CCCC1=O`, the solubility kinetic is reported as > 32.9 µg/mL. With `COc1ccc(NC(=O)C2CC(c3ccc(Cl)cc3)=NO2)cc1` (centres undefined) the solubility kinetic was < 0.4 µg/mL. Compound `CCCC(=O)Oc1ccc(C2NC(=O)c3ccccc3O2)cc1OC` (centres undefined) has a solubility kinetic of 3.9 µg/mL (≈ 11.4 µM). For `Cl.NCc1cc2c3c(c1)CCCN3CCC2`, the solubility kinetic was > 41.3 µg/mL. Work on `Cc1onc(-c2c(F)cccc2Cl)c1C(=O)Nc1cccc(S(=O)(=O)N2CCOCC2)c1` yielded a solubility kinetic of 37.8 µg/mL (≈ 78.8 µM). `COc1ccc(CNC(=O)CN2C(=O)NC3(CCCCCCC3)C2=O)cc1` showed a solubility kinetic of 23.4 µg/mL (≈ 62.7 µM). For `COCC(C)NCc1cccc2ccccc12.O=C(O)C(=O)O` (centres undefined), the solubility kinetic was > 47.9 µg/mL. Compound `O=C(NC12CC3CC(CC(C3)C1)C2)c1cccc([N+](=O)[O-])c1` has a solubility kinetic of 7.3 µg/mL (≈ 24.3 µM). `CC(C)CC(=O)N1CCN(Cc2cccc([N+](=O)[O-])c2)CC1` showed a solubility kinetic of 33.2 µg/mL (≈ 109 µM). With `Nc1nc(Nc2ccccc2)nc(NCc2ccccc2)c1[N+](=O)[O-]` the solubility kinetic was 0.2 µg/mL (≈ 0.595 µM). `Cc1cccc(C(=O)NC2CC3CCCC(C2)N3Cc2ccccc2)c1` (centres undefined) showed a solubility kinetic of 11.1 µg/mL (≈ 31.9 µM). With `COc1ccc(CCNC2CCCCCC2)cc1` the solubility kinetic was > 37.1 µg/mL. In the case of `Cc1nc(Nc2ccc(Cl)cc2)c2oc3ccccc3c2n1`, the solubility kinetic is reported as < 0.2 µg/mL. With `CCc1ccc(C(=O)N2CCCN(C)CC2)s1` the solubility kinetic was > 37.9 µg/mL. For `Cc1ccc(NC(=O)c2ccco2)nc1`, the solubility kinetic was 28.9 µg/mL (≈ 143 µM). With `O=CN1CCN(C(=O)c2ccc3c(c2)OCO3)CC1` the solubility kinetic was > 39.3 µg/mL. For `Clc1ccccc1NC1=NCCCS1`, the solubility kinetic was > 34 µg/mL. `Cc1cc2c(NCCc3ccccc3)ncnc2s1.Cl` showed a solubility kinetic of 8.7 µg/mL. With `O=C(NCc1cccc(Cl)c1)c1ccc2c(c1)OCCO2` the solubility kinetic was 3.2 µg/mL (≈ 10.5 µM). With `COc1ccc(Nc2nc(N)nc(CN3CCC(C)CC3)n2)cc1` the solubility kinetic was > 49.3 µg/mL. Compound `CCOc1ccc(NC(=S)Nc2cccc3cnccc23)cc1` has a solubility kinetic of 24.6 µg/mL (≈ 76.1 µM). With `Cc1ccc([N+](=O)[O-])cc1NC(=O)C[n+]1ccccc1.[Cl-]` the solubility kinetic was > 46.2 µg/mL. In the case of `COc1ccc(S(=O)(=O)n2cccc2)cc1OC`, the solubility kinetic is reported as 11.8 µg/mL (≈ 44.1 µM). With `COc1cc2nc(Cl)nc(N3CCCCC3)c2cc1OC` the solubility kinetic was 1.2 µg/mL (≈ 3.9 µM). In the case of `CCC(CO)(C(=O)OC1CC2CCC(C1)N2C)c1ccccc1.Cl` (centres undefined), the solubility kinetic is reported as > 53.1 µg/mL. With `COC(=O)c1sccc1NC(=O)c1c(F)c(F)c(F)c(F)c1F` the solubility kinetic was < 0.8 µg/mL. Compound `O=C(CN1C(=O)NC2(CCCC2)C1=O)Nc1ccc(Cl)cc1F` has a solubility kinetic of 49.8 µg/mL (≈ 147 µM). Work on `CC(=O)Nc1ccc(NC(=O)CCCn2cnc3ccccc3c2=O)cc1` yielded a solubility kinetic of 49.1 µg/mL (≈ 135 µM). For `COc1ccc(NC(=O)NCc2cccnc2)cc1`, the solubility kinetic was > 38.6 µg/mL. In the case of `CCCc1nc2ccccc2n1C(=S)SC`, the solubility kinetic is reported as 12.3 µg/mL (≈ 49.1 µM). With `Cc1ccc(S(=O)(=O)Nc2ncccn2)cc1` the solubility kinetic was > 37.4 µg/mL. In the case of `Cc1cc(C)n(Cc2cc(C(=O)O)c3ccccc3n2)n1`, the solubility kinetic is reported as > 42.2 µg/mL. In the case of `CN1CCN(c2ccc(NC(=O)CN3CCOCC3)cc2F)CC1`, the solubility kinetic is reported as > 50.5 µg/mL. Work on `O=C(NCC(=O)N1CC=C(c2ccccc2)CC1)c1ccc(OC(F)F)cc1` yielded a solubility kinetic of 8.2 µg/mL (≈ 21.2 µM).
